Patent US20140010876A1, “PHARMACEUTICAL ADMINISTRATION FORMS COMPRISING 5-CHLORO-N-(METHYL)-2-THIOPHENECARBOXAMIDE” (BAYER PHARMA AKTIENGESELLSCHAFT, priority 2012, published 2014)

Assay: solubility of the active compound (I) in water
Assay type: physicochemical
Experimental: During the development of formulations, the physicochemical characteristics have to be taken into account in combination with the particular biological properties of the active compound (I). The physicochemical characteristics include, for example, the poor solubility of the active compound (I) in water (about 7 mg/l). The particular biological properties of the active compound (I) are a food-dependent bioavailability (the “food effect”) which, in the case of rapid-release tablet formulations, is noticeable at dosages from about 15 mg, and a limited absorption from the lower sections of the intestine. As a consequence, the desired administration once daily requires specific pharmaceutical formulations releasing the active compound (I) taking into account its biopharmaceutical characteristics, such that on the one hand the active compound (I) is present in an amount sufficient to have a pharmaceutical effect and that on the other hand the active compound (I) is released in a manner such that its challenging properties with respect to solubility, food effect and absorption are overcome.

solubility: ~7 µg/mL
Structure (SMILES): O=C(NC[C@H]1CN(c2ccc(N3CCOCC3=O)cc2)C(=O)O1)c1ccc(Cl)s1 [active compound (I), 5-chloro-N-({(5S)-2-oxo-3-[4-(3-oxo-4-morpholinyl)phenyl]-1,3-oxazolidin-5-yl}methyl)-2-thiophenecarboxamide]
